Key:
Format in all cases: in vivo, rat
[1] = system: PKC (α, β, γ and ε); assay: Translocation of PKC isoforms α, β, γ and ε in particulate and cytosolic heart fractions (Western immunoblotting); conditions: 24 h after GGA 200 mg/kg oral or vehicle; chelerythrine 5 mg/kg i.v. pretreatment, FIG. 10
[2] = system: isolated perfused heart; assay: Isolated perfused heart experiments (Langendorff, 20 min no-flow global ischemia, 30 min reperfusion), Example 2
Experimental: (§1) Male Sprague-Dawley rats (220-250 g) were used. GGA, as an emulsion with 5% gum arabic and 0.008% tocopherol, was given orally at a dose of 200 mg/kg. Rats were classified into 4 groups. FIG. 7 is a diagrammatic representation of experimental protocol. […] Twenty-four hours after oral administration of GGA or vehicle, rats were anesthetized (sodium pentobarbital, 50 mg/kg IP) and heparinized (500 IU/kg IP). Hearts were excised, immediately frozen in liquid nitrogen, and stored at −70° C. until use for Western blot analysis (n=4 for each group). To examine the cardiac function during ischemia and reperfusion, hearts of each group were prepared for isolated perfused experiments using Langendorff apparatus (n=7-9 for each group, FIG. 7).
Twenty-four hours after administration-of 200 mg/kg of GGA or vehicle, rats of 4 groups were heparinized (500 IU/kg, IP) and anesthetized with sodium pentobarbital (50 mg/kg, IP). Each heart was isolated and perfused retrogradely using the Langendorff method with Krebs-Henseleit buffer (pH 7.4, [in mM] 118 NaCl, 4.7 KCl, 2.5 CaCl2, 1.2 MgSO4, 1.2 KH2PO4, 25.0 Na2HCO3, 11.0 glucose) equilibrated with 95% O2-5% CO2 gas mixture at 36.5° C. at a constant pressure of 75 mm Hg. A water-filled latex balloon was inserted through the mitral orifice into the left ventricle (LV) and the LV end-diastolic pressure (LVEDP) was adjusted to 0-5 mm Hg. During the initial 10 min of constant pressure perfusion, the perfusion flow rate was determined for each heart, which was then perfused at a determined perfusion rate using a microtube pump while the heart was covered with water-jacketed glassware and the relative humidity maintained at 90% or more. Normothermic no-flow global ischemia was initiated for 20 min, followed by reperfusion for 30 min. The coronary effluent during the 30 min of reperfusion period was collected for measurement of creatine kinase content (released CK).
LV pressure was monitored using a pressure transducer to obtain the peak positive and negative first derivatives of LV pressure (dP/dtmax and dP/dtmin). […] Coronary perfusion pressure (CPP) was defined as the hydraulic pressure measured at the level of aortic cannulation. LV pressure, CPP and electrocardiogram were continuously recorded on a polygraph recorder (WS-681G, Nihon Kohden) and stored on a PCM data recorder (RD-111T, TEAC) for later analysis.
Data are expressed as mean ±SEM. Serial changes in LVDP, LVEDP, CPP, and dP/dt were analyzed by two-way analysis of variance (ANOVA) followed by the Bonferroni/Dunn test, unless otherwise specified. Comparisons among groups with respect to the hemodynamic parameters at baseline and the ratio of released CK to ventricular weight were analyzed by one-way ANOVA followed by the Bonferroni/Dunn test. […]

[3] = system: heat shock factor 1 (HSF1); assay: HSF1 phosphorylation and translocation in cytosolic and nuclear heart fractions (Western immunoblotting); conditions: 24 h after GGA 200 mg/kg oral or vehicle; chelerythrine 5 mg/kg i.v. pretreatment, FIG. 9
Experimental: as §1, with “To examine the cardiac function during ischemia and reperfusion, hearts of each group were prepared for isolated perfused experiments using Langendorff apparatus (n=7-9 for each group, FIG. 7).” left out
To analyze the expression of HSP70, the frozen heart samples were homogenized with SDS sample buffer (pH 6.8, 20% glycerol, 6% SDS, 0.12M Tris), centrifuged and boiled (Maloyan A, Palmon A, Horowitz M. Heat acclimation increases the basal HSP70 level and alters its production dynamics during heat stress. Am J Physiol. 1999; 276:R1506-R1515.). […] The total protein concentration of heart was quantified by the Bradford method (Bradford MM. A rapid and sensitive method for quantitation of microgram quantities of protein utilizing the principle of protein-dye binding. Anal. Biochem. 1976;72:248-254). […] The proteins were detected by ECL with exposure to Hyperfilm (Amersham Pharmacia). The amount of protein on the immunoblots was quantified using National Institutes of Health image software. […]

[4] = system: PKCδ; assay: Translocation of PKCδ in particulate and cytosolic heart fractions (Western immunoblotting); conditions: 24 h after GGA 200 mg/kg oral or vehicle; chelerythrine 5 mg/kg i.v. pretreatment, FIG. 10

Compound: CC(=O)CCC=C(C)CCC=C(C)CCC=C(C)CCC=C(C)C [GGA, 6, 10, 14, 18-tetramethyl-5,9, 13, 17-nonadecatetraen-2-one]
- PKC isoforms α, β, γ and ε in cytosolic and particulate fractions [1]: not influenced
- released creatine kinase (CK) relative to ventricular weight ([2]; 30-min reperfusion period after 20 min ischemia, FIG. 12): lower
- recovery of LVDP, LVEDP and dP/dt on reperfusion versus CNT group ([2]; 20 min no-flow global ischemia, 30 min reperfusion, FIG. 11): greater
- amount of phosphorylated form of HSF1 in the nuclear fraction [3]: increased
- PKCδ in the particulate fraction / particulate/cytosol ratio versus CNT group [4]: significant increase

Reference: patent US6846845B2, “Heat shock protein inducer” (Eisai Co., Ltd., priority 2002, dated 2005)
